Assay results taken from patent publication US10017516B2, “BMP inhibitors and methods of use thereof” (The Brigham and Women's Hospital, Inc., priority 2013, dated 2018).

Experiments:
[1] = In vitro metabolism in mouse and human liver microsomes and cytosols; format: in vitro ADME; conditions: for major metabolism in the presence of liver cytosol (aldehyde oxidase-mediated oxidation): 10 μM, 60 min, mouse and human; for glucuronide conjugates: with UDPGA
human ALK2 = human ALK2 (Homo sapiens (Human), UniProt Q04771); experiment: LANCE Ultra ULight enzymatic assay, ALK2; format: biochemical; conditions: 10 μM ATP
human ALK2, sequence (Q04771 21-509): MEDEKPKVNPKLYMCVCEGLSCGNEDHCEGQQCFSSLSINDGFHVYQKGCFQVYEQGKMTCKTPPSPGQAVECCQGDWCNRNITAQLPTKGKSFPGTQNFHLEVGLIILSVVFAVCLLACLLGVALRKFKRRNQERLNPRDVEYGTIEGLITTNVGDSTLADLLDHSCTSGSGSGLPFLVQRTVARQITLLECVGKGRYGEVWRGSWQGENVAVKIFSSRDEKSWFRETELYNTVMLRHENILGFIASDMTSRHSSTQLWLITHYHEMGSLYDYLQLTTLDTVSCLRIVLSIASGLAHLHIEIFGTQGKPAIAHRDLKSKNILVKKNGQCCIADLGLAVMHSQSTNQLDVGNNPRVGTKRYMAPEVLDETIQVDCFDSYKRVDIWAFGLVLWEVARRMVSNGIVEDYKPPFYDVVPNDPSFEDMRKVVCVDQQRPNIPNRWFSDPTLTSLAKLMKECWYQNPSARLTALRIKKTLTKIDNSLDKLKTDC

[2] = In vitro metabolism in human liver microsomes and cytosols; format: in vitro ADME

c1ccc2c(-c3cnn4cc(-c5ccc(C6CCNCC6)cc5)cnc34)ccnc2c1 [Compound 48]
major metabolism in the presence of liver cytosol (aldehyde oxidase-mediated oxidation) [1]: metabolized mainly through the oxidation of the quinoline ring
GSH trapping of soft electrophiles ([1]; GSH 2 mM): not observed
cyanide adducts (reactive intermediate trapping with KCN) ([1]; KCN 0.1 mM): not observed
glucuronide conjugates [1]: not observed

Cc1ccc2c(-c3cnn4cc(-c5ccc(OCCN6CCCCC6)cn5)cnc34)cccc2n1 [Compound 48′, 2-methyl-5-(6-(5-(2-(piperidin-1-yl)ethoxy)pyridin-2-yl)pyrazolo[1,5-a]pyrimidin-3-yl)quinoline]
IC50 (human ALK2): 85 nM

C[C@@H]1CNC[C@H](C)N1c1ccc(-c2cnc3c(-c4ccnc5ccccc45)cnn3c2)cc1 [compound 2, 4-(6-(4-((2R,6S)-2,6-dimethylpiperazin-1-yl)phenyl)pyrazolo[1,5-a]pyrimidin-3-yl)quinoline]
major metabolism in the presence of liver cytosol (aldehyde oxidase-mediated oxidation) [1]: oxidation of the alpha-carbon of quinoline nitrogen, leading to M450c
glucuronide conjugates [1]: not observed

Cc1cc(-c2cnn3cc(-c4ccc(N5CCNCC5)nc4)cnc23)c2ccccc2n1 [compound 12, 2-methyl-4-(6-(6-(piperazin-1-yl)pyridin-3-yl)pyrazolo[1,5-a]pyrimidin-3-yl)quinoline]
oxidative metabolites in incubation without NADPH (AO mediated metabolism) ([2]; 10 μM, 1 hr, HLM + human cytosol): Oxidative metabolites were not observed
cyanide adduct (KCN trapping) ([2]; KCN 1 mM): A major cyanide adduct was observed
glucuronide conjugates ([2]; UDPGA 4 mM): Glucuronide conjugates were not observed
aniline metabolites ([2]; human liver microsomal preparations): An aniline derivative was observed
